Measurements reported in patent publication US5376679A, “Bicyclic or tricyclic biocidal compounds” (Shell Internationale Research Maatschappij B.V., priority 1988, dated 1994).
Values after ≈ are worked out from the molar mass of the structure shown.

Assays:
Type in all cases: in vivo
Plasmopara viticola [1] = assay: Direct protectant activity against vine downy mildew (Pvp); set-up: Pvp: direct protectant activity against vine downy mildew: scale not given here; details: foliar spray, 1 kg/ha; activity grade 1 or 2, not defined
Procedure, shortened: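 Lower leaf surfaces of whole vine plants (cv Cabernet Sauvignon) were sprayed at 1 kg/ha in water/acetone with surfactant, then inoculated 24 h later with 10^4 zoosporangia/ml. Scored as % leaf area with sporulation versus control leaves.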

Botrytis cinerea = assay: Direct protectant activity against vine grey mould (Bcp); details: for Bcp: direct protectant activity against vine grey mould: foliar spray, 1 kg/ha, activity grade 1 or 2, not defined
Description: (b) Direct Protectant Activity Against Vine Grey Mould (Botrytis cinerea; Bcp) The test is a direct protectant one using a foliar spray and is effected as described under (a), with the difference that the leaves are inoculated by spraying with an aqueous solution containing 10^5 conidia/ml.

Leptosphaeria nodorum = assay: Direct antisporulant activity against wheat leafspot (Ln); set-up: scale not given here; details: foliar spray, 1 kg/ha; activity grade 1 or 2, not defined
Procedure, shortened: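 Single-leaf wheat plants were spray-inoculated with 8×10^5 spores/ml and held 24 h at high humidity before foliar spray treatment. Plants were then kept 5 days in the glasshouse. Read-out is the percentage of leaf area sporulating, relative to untreated controls.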

Alternaria Solani = assay: Direct protectant activity against tomato early blight (As); set-up: As: activity against tomato early blight: scale not given here; details: for As: activity against tomato early blight: foliar spray as under (a), 8 days, activity grade 1 or 2, not defined; as to As: activity against tomato early blight: dose 1000 g/ha
Method: (g) Activity Against Tomato Early Blight (Alternaria Solani; As). The test is a direct protectant one using a foliar spray. The upper surfaces of leaves of young tomato plants are sprayed with a solution of active material as described in (a) above. After 24 hours under normal glasshouse conditions, the upper surfaces of the leaves are inoculated by spraying with an aqueous suspension containing 10^4 spores/ml. The inoculated plants are kept for 72 hours in a high humidity compartment and are then removed to lower humidity (50-70% relative humidity). Assessment is made 8 days after inoculation.

Puccinia Recondita = assay: Direct protectant activity against wheat brown rust (Pr); set-up: scale not given here; details: foliar spray, 1 kg/ha, 10 days; activity grade 1 or 2, not defined
Method: (i) Activity Against Wheat Brown Rust (Puccinia Recondita; Pr) The test is a direct protectant one using a foliar spray. […] The plants are then sprayed with the test compound at a dosage of 1 kg/ha using a track sprayer as described under (a). Test compounds are applied as solutions or suspensions in a mixture of acetone and water (50:50 v/v) containing 0.04% surfactant ("TWEEN 20"--Trade Mark). 18-24 hours after treatment, the seedlings are inoculated by spraying the plants from all sides with an aqueous spore suspension containing about 10^5 spores/ml. For 18 hours after inoculation, the plants are kept in high humidity conditions at a temperature of 20°-22° C. Thereafter, the plants are kept in ambient glasshouse conditions, that is, in moderate relative humidity and at a temperature of 20° C. The disease is assessed 10 days after inoculation on the basis of the percentage of the plant covered by sporulating pustules compared with that on the control plants.

Plasmopara viticola [2] = assay: Translaminar protectant test, vine downy mildew (Pvt); details: secondary screening
Description: The fungicidal activity of certain of the compounds was investigated further, in secondary screening.

[3] = system: Erysiphe graminis f.sp. hordei; assay: Direct antisporulant activity against barley powdery mildew (Eg); set-up: scale not given here; details: foliar spray, 1 kg/ha; activity grade 1 or 2, not defined
Procedure, shortened: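 Barley seedlings (cv. Golden Promise) were dusted with conidia one day before a foliar spray of compound. Plants were then held at ambient glasshouse conditions for up to 7 days. Sporulating leaf area (%) was scored against untreated control plants.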

Plasmopara viticola [4] = assay: Antisporulant activity against vine downy mildew (Pva); details: foliar spray, 1 kg/ha; activity grade 1 or 2, not defined
Method: (j) Antisporulant Activity Against Vine Downy Mildew (Plasmopara viticola; Pva)
The test is a direct antisporulant one using a foliar spray. The lower surfaces of leaves of whole vine plants (cv Cabernet Sauvignon) are inoculated by spraying with an aqueous suspension containing 10^4 zoosporangia/ml 2 days prior to treatment with the test compound. The inoculated plants are kept for 24 hours in a high humidity compartment, and then 24 hours at glasshouse ambient temperature and humidity. When the plants are dry, infected leaves are sprayed on their lower surfaces with a solution of active material in 1:1 water/acetone containing 0.04% w/w "Triton X-155" (trade mark) (an octylphenol polyethoxylate surfactant). The spraying is carried out with a moving track sprayer with delivers 620 liter/ha, and the concentration of active material is calculated to give an application rate of 1 kg/ha. After spraying, the plants are returned to normal glasshouse conditions for 96 hours and are then transferred to the high humidity compartment for 24 hours to induce sporulation, prior to assessment. Assessment is visual and is based on the percentage of the leaf area covered by sporulation compared with that on control leaves.

[5] = system: rice root nematode Meloidogyne graminicola; assay: Nematicidal water screen; details: for activity against the nematodes, water screen: nematodes retained in dilute aqueous solution
Method: (§1) The nematicidal activity of the compounds of Example 17 and 23 was investigated. They were tested against the rice root nematode Meloidogyne graminicola in a water screen whereby the effect of retaining the nematodes in a dilute aqueous solution of the compounds was studied, and in a soil drench test in which the propensity of these nematodes to cause knots in the roots of grain sorghum S. bicolor was studied as a function of concentration of the compounds applied to the soil. […] Thus in the water screen test it was determined that the minimum inhibitory concentration of the compound of Example 23 was 0.53 ppm.

[6] = system: rice root nematode Meloidogyne graminicola; assay: Nematicidal soil drench test (root knots in grain sorghum); details: knots in roots of grain sorghum S. bicolor
Method: as §1

| Structure (SMILES) | Pvp: direct protectant activity against vine downy mildew (Plasmopara viticola [1]) | Ln: activity against wheat leafspot (Leptosphaeria nodorum) | As: activity against tomato early blight (Alternaria Solani) | Pr: activity against wheat brown rust (Puccinia Recondita) | Eg: activity against barley powdery mildew [3] | Other: Pva, antisporulant activity against vine downy mildew (Plasmopara viticola [4]) | also measured |
| --- | --- | --- | --- | --- | --- | --- | --- |
| N#CN=[N+]([O-])c1ccc2oc(=O)ccc2c1 [Example 1] | 2 | 1 | 2 | 2 | – | – | Bcp: direct protectant activity against vine grey mould (Botrytis cinerea): 1; activity against As (Alternaria Solani; secondary screening): high activity; activity against Pvt (Plasmopara viticola [2]): high activity |
| CC1(C)Cc2cc(Cl)cc([N+]([O-])=NC#N)c2O1 [Example 4] | 2 | 1 | – | 2 | – | – | – |
| CC1Oc2c(cc(Cl)cc2[N+]([O-])=NC#N)C1C (stereo not shown) [Example 5] | 2 | 1 | – | 2 | 1 | 2 | – |
| CC1Cc2cc(Cl)cc([N+]([O-])=NC#N)c2O1 (stereo not shown) [Example 6] | 2 | 1 | 1 | 2 | – | – | – |
| CC1Oc2c(cccc2[N+]([O-])=NC#N)C1C (stereo not shown) [Example 9] | – | 1 | – | – | 1 | 1 | – |
| N#CN=[N+]([O-])c1cc(Cl)cc2c1OC(CCl)C2 (stereo not shown) [Example 10] | 2 | 1 | – | 2 | – | – | – |
| N#CN=[N+]([O-])c1cc(Cl)cc2c1OC(CO)C2 (stereo not shown) [Example 11] | 2 | – | – | 1 | – | – | – |
| Cc1cc2cccc([N+]([O-])=NC#N)c2o1 [Example 16] | 2 | – | 2 | 1 | – | – | Bcp: direct protectant activity against vine grey mould (Botrytis cinerea): 2; activity against Bcp (Botrytis cinerea; secondary screening): high activity; activity against Pvt (Plasmopara viticola [2]): high activity |
| N#CN=[N+]([O-])c1cccc2c3c(oc12)CCCC3 [Example 17] | 2 | 1 | 1 | 1 | – | – | activity against the nematodes, water screen [5]: activity against the nematodes; activity against the nematodes, soil drench test [6]: activity against the nematodes |
| Cc1oc2c([N+]([O-])=NC#N)cccc2c1C [Example 18] | 2 | – | 2 | 2 | 1 | – | – |
| Cc1cc2cc([N+]([O-])=NC#N)ccc2o1 [Example 23] | – | – | 1 | 2 | 1 | 2 | MIC ([5]; Meloidogyne graminicola, water screen, read-out: minimum inhibitory concentration, water screen): 0.53 µg/mL (≈ 2.63 µM); activity against the nematodes, water screen [5]: activity against the nematodes; activity against the nematodes, soil drench test [6]: activity against the nematodes |
| N#CN=[N+]([O-])c1cc(Cl)cc2c1OCC=C2 [Example 26] | 2 | – | – | 1 | 2 | 2 | Bcp: direct protectant activity against vine grey mould (Botrytis cinerea): 2; activity against Pvt (Plasmopara viticola [2]): high activity |
| CC1(C)C=Cc2cc(F)cc([N+]([O-])=NC#N)c2O1 [Example 29] | – | – | – | – | 1 | 2 | – |
